# In PubChem BioAssay (NCI):
#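 Tested at 5 concentrations; 48 h exposure; 96-well plates; endpoints linearly interpolated, else capped at highest concentration. The concentration for full growth arrest is given as TGI.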
# What was measured:
# Experiment in all cases: inhibition of tumour cell growth, NCI panel, 48 h
# 786-0 renal = system: 786-0 renal
# A498 renal = system: A498 renal
# A549 NSCLC = system: A549 NSCLC
# ACHN renal = system: ACHN renal
# BT-549 breast = system: BT-549 breast
# CAKI-1 renal = system: CAKI-1 renal
# CCRF-CEM leukemia = system: CCRF-CEM leukemia
# COLO 205 colon = system: COLO 205 colon
# DU-145 prostate = system: DU-145 prostate
# EKVX NSCLC = system: EKVX NSCLC
# HCC-2998 colon = system: HCC-2998 colon
# HCT-116 colon = system: HCT-116 colon
# HCT-15 colon = system: HCT-15 colon
# HL-60(TB) leukemia = system: HL-60(TB) leukemia
# HOP-62 NSCLC = system: HOP-62 NSCLC
# HS 578T breast = system: HS 578T breast
# HT29 colon = system: HT29 colon
# IGROV1 ovarian = system: IGROV1 ovarian
# K-562 leukemia = system: K-562 leukemia
# KM12 colon = system: KM12 colon
# LOX IMVI melanoma = system: LOX IMVI melanoma
# M14 melanoma = system: M14 melanoma
# MALME-3M melanoma = system: MALME-3M melanoma
# MCF7 breast = system: MCF7 breast
# MDA-MB-231 breast = system: MDA-MB-231 breast
# MDA-MB-435 = system: MDA-MB-435
# MDA-N = system: MDA-N
# MOLT-4 leukemia = system: MOLT-4 leukemia
# NCI-H226 lung = system: NCI-H226 lung
# NCI-H23 lung = system: NCI-H23 lung
# NCI-H460 lung = system: NCI-H460 lung
# NCI-H522 lung = system: NCI-H522 lung
# NCI/ADR-RES ovarian = system: NCI/ADR-RES ovarian
# OVCAR-3 ovarian = system: OVCAR-3 ovarian
# OVCAR-4 ovarian = system: OVCAR-4 ovarian
# OVCAR-5 ovarian = system: OVCAR-5 ovarian
# OVCAR-8 ovarian = system: OVCAR-8 ovarian
# PC-3 prostate = system: PC-3 prostate
# RPMI-8226 leukemia = system: RPMI-8226 leukemia
# RXF 393 renal = system: RXF 393 renal
# SF-268 CNS = system: SF-268 CNS
# SF-295 CNS = system: SF-295 CNS
# SF-539 CNS = system: SF-539 CNS
# SK-MEL-2 melanoma = system: SK-MEL-2 melanoma
# SK-MEL-28 melanoma = system: SK-MEL-28 melanoma
# SK-OV-3 ovarian = system: SK-OV-3 ovarian
# SN12C renal = system: SN12C renal
# SNB-19 CNS = system: SNB-19 CNS
# SNB-75 CNS = system: SNB-75 CNS
# SW-620 colon = system: SW-620 colon
# T-47D breast = system: T-47D breast
# TK-10 renal = system: TK-10 renal
# U251 CNS = system: U251 CNS
# UACC-257 melanoma = system: UACC-257 melanoma
# UACC-62 melanoma = system: UACC-62 melanoma
smiles,measurement,setting,value
COc1ccc(OC/C(N=Cc2cccnc2)=N/NC(=O)c2ccncc2)cc1,TGI,786-0 renal,> 100 µM
same,TGI,A498 renal,> 100 µM
same,TGI,A549 NSCLC,> 100 µM
same,TGI,ACHN renal,> 100 µM
same,TGI,BT-549 breast,> 100 µM
same,TGI,CAKI-1 renal,> 100 µM
same,TGI,CCRF-CEM leukemia,> 100 µM
same,TGI,COLO 205 colon,> 100 µM
same,TGI,DU-145 prostate,> 100 µM
same,TGI,EKVX NSCLC,> 100 µM
same,TGI,HCC-2998 colon,> 100 µM
same,TGI,HCT-116 colon,> 100 µM
same,TGI,HCT-15 colon,> 100 µM
same,TGI,HL-60(TB) leukemia,> 100 µM
same,TGI,HOP-62 NSCLC,> 100 µM
same,TGI,HS 578T breast,> 100 µM
same,TGI,HT29 colon,> 100 µM
same,TGI,IGROV1 ovarian,> 100 µM
same,TGI,K-562 leukemia,> 100 µM
same,TGI,KM12 colon,> 100 µM
same,TGI,LOX IMVI melanoma,> 100 µM
same,TGI,M14 melanoma,> 100 µM
same,TGI,MALME-3M melanoma,> 100 µM
same,TGI,MCF7 breast,> 100 µM
same,TGI,MDA-MB-231 breast,> 100 µM
same,TGI,MDA-MB-435,82.1 µM
same,TGI,MDA-N,45.6 µM
same,TGI,MOLT-4 leukemia,> 100 µM
same,TGI,NCI-H226 lung,> 100 µM
same,TGI,NCI-H23 lung,> 100 µM
same,TGI,NCI-H460 lung,> 100 µM
same,TGI,NCI-H522 lung,34 µM
same,TGI,NCI/ADR-RES ovarian,> 100 µM
same,TGI,OVCAR-3 ovarian,> 100 µM
same,TGI,OVCAR-4 ovarian,> 100 µM
same,TGI,OVCAR-5 ovarian,> 100 µM
same,TGI,OVCAR-8 ovarian,> 100 µM
same,TGI,PC-3 prostate,> 100 µM
same,TGI,RPMI-8226 leukemia,> 100 µM
same,TGI,RXF 393 renal,> 100 µM
same,TGI,SF-268 CNS,> 100 µM
same,TGI,SF-295 CNS,> 100 µM
same,TGI,SF-539 CNS,> 100 µM
same,TGI,SK-MEL-2 melanoma,> 100 µM
same,TGI,SK-MEL-28 melanoma,> 100 µM
same,TGI,SK-OV-3 ovarian,> 100 µM
same,TGI,SN12C renal,> 100 µM
same,TGI,SNB-19 CNS,> 100 µM
same,TGI,SNB-75 CNS,85.2 µM
same,TGI,SW-620 colon,> 100 µM
same,TGI,T-47D breast,> 100 µM
same,TGI,TK-10 renal,> 100 µM
same,TGI,U251 CNS,> 100 µM
same,TGI,UACC-257 melanoma,> 100 µM
same,TGI,UACC-62 melanoma,> 100 µM
